By Ki is commonly meant a measure of affinity in units of concentration, obtained from inhibition or displacement. Broadly, the melting point is the temperature, or range, at which the solid turns liquid.

SMILES strings stand for the structures.

The values that follow come from patent publication US10214520B2, “Substituted azaspiro(4.5)decane derivatives” (priority 2014, dated 2019).

The target in the first data set is human μ opiate receptor (Homo sapiens, UniProt P35372). Briefly: μ opiate receptor binding assay with [3H]-naloxone, membrane preparation of CHO-K1 cells (WGA-SPA beads). The settings on record: mean; read-out: Ki (μ) mean [μm].
Sequence of human μ opiate receptor (P35372 whole entry): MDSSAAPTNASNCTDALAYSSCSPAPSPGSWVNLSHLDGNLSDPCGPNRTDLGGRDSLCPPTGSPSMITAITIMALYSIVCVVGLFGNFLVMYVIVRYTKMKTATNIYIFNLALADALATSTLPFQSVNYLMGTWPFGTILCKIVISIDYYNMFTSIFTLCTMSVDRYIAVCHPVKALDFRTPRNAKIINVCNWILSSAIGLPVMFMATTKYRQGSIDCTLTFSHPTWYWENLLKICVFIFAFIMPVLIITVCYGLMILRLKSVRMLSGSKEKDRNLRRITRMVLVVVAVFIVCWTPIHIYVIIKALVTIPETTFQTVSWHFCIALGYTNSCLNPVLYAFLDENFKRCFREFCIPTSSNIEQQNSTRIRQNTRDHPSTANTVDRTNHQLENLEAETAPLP
In the case of `CN(C)C1(C(=O)c2ccccc2)CCC2(CCN(Cc3ccccc3)C2)CC1` (single isomer, unassigned) [Example No. 70, [3-Benzyl-8-(dimethylamino)-3-azaspiro[4.5]decan-8-yl]-phenylmethanone], the Ki was 465 nM. `CCCCC1(N(C)C)CCC2(CC1)CC(=O)N(Cc1ccccc1)C2` (stereo not shown) [Example No. 124, 3-Benzyl-8-butyl-8-(dimethylamino)-3-azaspiro[4.5]decan-2-one]: the Ki stood at 2970 nM. With `CN(C)C1(C(=O)c2cccs2)CCC2(CCN(Cc3ccccc3)C2)CC1` (single isomer, unassigned) [Example No. 72, [3-Benzyl-8-(dimethylamino)-3-azaspiro[4.5]decan-8-yl]-thiophen-2-ylmethanone], the Ki was 805 nM. Turning to `CN(C)C1(C(=O)c2cccs2)CCC2(CCN(Cc3ccccc3)C2)CC1` (single isomer, unassigned) [Example No. 71, [3-Benzyl-8-(dimethylamino)-3-azaspiro[4.5]decan-8-yl]-thiophen-2-ylmethanone], the Ki worked out at 127 nM. Turning to `CN(C)C1(c2cccs2)CCC2(CCN(Cc3ccncc3)C2=O)CC1` (stereo not shown) [Example 85], the Ki was 260 nM.

Still in this data set, the particulars now being: read-out: MOP Ki.
Consider `COC(=O)c1ccc(N2C[C@]3(CC[C@@](c4ccccc4)(N(C)C)CC3)CC2=O)cc1` [SC-1074, Cis-4-(8-Dimethylamino-3-oxo-8-phenyl-2-azaspiro[4.5]decan-2-yl)-benzoic acid methyl ester], for which the Ki stood at 420 nM.

In the case of `CN(C)[C@]1(c2cnccn2)CC[C@]2(CC1)CC(=O)N(CCCC(N)=O)C2` [SC-1010, Cis-4-(8-Dimethylamino-3-oxo-8-pyrazin-2-yl-2-azaspiro[4.5]decan-2-yl)-butyramide], the Ki is 825 nM. Turning to `CN(C)[C@]1(c2ccccn2)CC[C@]2(CC1)CC(=O)N(CCCC(N)=O)C2` [SC-1013, Cis-4-(8-Dimethylamino-3-oxo-8-pyridin-2-yl-2-azaspiro[4.5]decan-2-yl)-butyramide], the Ki came out at 2430 nM.

For the compound `CN(C)[C@]1(c2ccccc2)CC[C@]2(CC1)CC(=O)N(CC(C)(C)C(=O)NCCc1cncnc1)C2` [SC-1184, Cis-3-(8-Dimethylamino-3-oxo-8-phenyl-2-azaspiro[4.5]decan-2-yl)-2,2-dimethyl-N-(2-pyrimidin-5-yl-ethyl)-propionamide], the Ki is 320 nM.

System in the next data set: not given
Test: not given
Conditions: not given
`Cc1ccc(C2(N(C)C)CCC3(CC2)CC(=O)N(C(=O)OC(C)(C)C)C3)s1` (stereo not shown) displayed a melting point of 165 to 167 °C.
